# In patent publication US9289400B2, “D3 dopamine receptor agonists to treat dyskinesia in parkinson's disease” (priority 2010, dated 2016):
# Entries after “also recorded” stand apart in the source; their conditions may differ. Where two headings read alike, the source gives them in different places.
# Key:
# D3 dopamine receptor [1] = molecular target: T1, D3 dopamine receptor (Homo sapiens (Human), UniProt P35462); assay: D3 receptor tolerance and SRT: GIRK response to repeated agonist application in AtT-20 cells; format: cell-based; conditions: AtT-20 cells expressing human D3, 100-300 nM agonist, repeated ~60 s applications
# Method: To determine whether a compound abolishes the D3 receptor tolerance and SRT, the D3 receptor-activated GIRK response to two consecutive treatments of the lead compound is measured. […] Drug solutions were delivered to cells via a multi-barreled micropipette array. The current responses were normalized to the cell capacitance, to account for variation in cell size.
# To identify agonists that might modulate D3 receptor tolerance and SRT properties, ten distinct agonists were screened for their ability to induce tolerance and SRT, using the D3 receptor-GIRK channel signaling pathway as an assay.
# Target sequence in this assay (P35462 other isoform, or with tags, fused parts or gaps): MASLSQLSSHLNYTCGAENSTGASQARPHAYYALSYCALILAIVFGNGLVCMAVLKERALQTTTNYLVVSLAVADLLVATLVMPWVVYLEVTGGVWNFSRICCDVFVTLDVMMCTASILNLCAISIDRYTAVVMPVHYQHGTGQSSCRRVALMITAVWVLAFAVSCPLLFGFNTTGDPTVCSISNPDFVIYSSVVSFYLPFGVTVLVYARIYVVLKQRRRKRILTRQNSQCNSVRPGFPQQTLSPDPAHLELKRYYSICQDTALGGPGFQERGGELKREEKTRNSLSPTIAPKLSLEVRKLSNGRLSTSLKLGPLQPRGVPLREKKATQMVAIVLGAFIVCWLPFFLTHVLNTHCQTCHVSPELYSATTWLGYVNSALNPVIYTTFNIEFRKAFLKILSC
# D3 dopamine receptor [2] = molecular target: T1, D3 dopamine receptor; assay: GIRK channel activation, whole cell voltage clamp, AtT-20 cells stably expressing D3; format: cell-based; conditions: D2/D3 antagonist eticlopride (100 nM)
# Method: The activation of the GIRK channels was measured electrophysiologically using whole cell voltage clamp recording (Kuzhikandathil et al., 2004, Mol. Cell. Neurosci. 26:144-155). […]. The adenylyl cyclase inhibition was determined using a commercially available ELISA assay (Westrich & Kuzhikandathil, 2007, Biochim. Biophys. Acta-Mol. Cell. Res. 1773:1747-1758).
# . In the initial screen, the ability of 300 nM lead compound to activate G-protein coupled inward rectifier potassium (GIRK) channels (FIG. 1) is measured using whole cell voltage clamp recording. The protocol has been previously used for performing whole cell voltage clamp and measuring agonist-induced GIRK response. […]. The EC50 values for each receptor subtype is determined by fitting the data points using the Hill equation.
# AtT-20 mouse pituitary cells were grown in Ham's F10 medium with 5% FBS, 10% heat-inactivated horse serum, 2 mM glutamine and 50 μg/ml gentamicin (Invitrogen, Carlsbad, Calif.). AtT-20 cells stabling expressing the human D2S, D2L, D3, and D4.2 and receptor were maintained in the above F10 culture media supplemented with 500 μg/ml G418 (Invitrogen). For electrophysiological characterization, cells were plated onto glass coverslips coated with 40 μg/ml poly L-lysine (Sigma-Aldrich). […]. Physiol. 115:697-706; Kuzhikandathil et al., 1998, Mol. Cell. Neurosci. 12:390-402; Kuzhikandathil & Bartoszyk, 2006, Neuropharm. 51:873-884; Westrich & Kuzhikandathil, 2007, Biochim. Biophys. Acta-MCR 1773:1747-1758; Kuzhikandathil et al., 2004, Mol. Cell. Neurosci. 26:144-155; Westrich et al., 2010, Biochem. Pharmacol. 79:897-907).
# Agonist-activated currents were measured by the whole-cell patch clamp technique in voltage clamp and current clamp mode as described previously (Kuzhikandathil & Oxford, 2000, J. Gen. Physiol. 115:697-706; Kuzhikandathil et al., 1998, Mol. Cell. Neurosci. 12:390-402; Kuzhikandathil & Bartoszyk, 2006, Neuropharm. 51:873-884; Westrich & Kuzhikandathil, 2007, Biochim. Biophys. Acta-MCR 1773:1747-1758; Kuzhikandathil et al., 2004, Mol. Cell. Neurosci. 26:144-155; Westrich et al., 2010, Biochem. Pharmacol. 79:897-907). Drug solutions were delivered to cells via a multi-barreled micropipette array. The current responses were normalized to the cell capacitance, to account for variation in cell size.
# To compare the functional effects of the new class of D3 receptor agonists, PBZI (Table 2) and ES609 (Table 3) were tested on AtT-20 cells stably expressing human D3, D2S, D2L or D4.2. […]. The EC50 values of PBZI and ES609 for inhibiting adenylyl cyclase and activating GIRK channels were in the range of 0.2 nM to 30 nM for D3 receptors. […]. […]
# Target sequence in this assay (P35462 other isoform, or with tags, fused parts or gaps): as above
# D4.2 = conditions: Scheideler et al., 1997; cited from earlier work
# D3 dopamine receptor [3] = molecular target: T1, D3 dopamine receptor; conditions: cited from earlier work
# Target sequence in this assay (P35462 whole entry): as the sequence (P35462 other isoform, or with tags, fused parts or gaps) above, with S9G counted along it
# [4] = test system: intrastriatal 6-OHDA lesioned rats; assay: Levodopa-induced dyskinesia (AIMs score) in intrastriatal 6-OHDA lesioned rats; format: in vivo, rat; conditions: PD128907 0.1 mg/kg sc; PBZI 17 mg/kg sc; hydrochloride
# Method: In particular, rats in which unilateral intrastriatal lesion is induced by injection of 6-OHDA (7 μg) at three different sites in the ventrolateral striatum are used. The coordinates for the three injection sites are, in mm: injection site 1: AP: +1.0; ML: −3.0; DV: −5.0; injection site 2: AP: −0.1; ML: −3.7; DV: −5.0; injection site 3: AP: −1.2; ML: −4.5; DV: −5.0. Anterior-posterior (AP) and mediolateral (ML) coordinates are from bregma. The dorso-ventral (DV) coordinates are from dura. The toothbar location is 0.
# Seven and half weeks after the lesion, chronic levodopa treatment (6 mg/kg, single dose per day given with 15 mg/kg benserazide) is initiated. Stepping test and AIMs scores are determined on day 1, 8, 10, 17 and 24 after the initiation of chronic levodopa treatment. […] AIMs are scored using a rating scale based on frequency and severity of the dyskinetic symptoms. It should be noted that the rank order of the various AIMs components in terms of frequency and severity in the rat model is: limb>orolingual=axial>>locomotor. This lesion model has been used to test the effect of PBZI on LID (Example 3).
# FIG. 13A illustrates the effect of control, PD128907 (a tolerance inducing D2/D3 agonist) and PBZI (a non tolerance inducing D3/D3 agonist) on the total AIMs score (includes locomotor, axial, limb and orolingual) over time of a day 17 (chronic L-DOPA phase) lesioned animal.
# D2S = D2S (Homo sapiens (Human), UniProt P14416); conditions: Scheideler et al., 1997; cited from earlier work
# Balb/c mice = assay: Locomotor activity (open field, TruScan) in Balb/c mice
# Method: Therefore, three different doses of the lead compound are administered and their effects on locomotor activity are determined. The dosage is determined based on the functional EC50 values and binding affinity of the lead compound from the cell-based assays described above. The compound is administered to Balb/c mice and locomotor activity is monitored using the TruScan Automated Behavioral Monitoring system (Coulborn Instruments).
# A total of 12 young adult, male Balb/c mice were obtained form Charles River, Inc. (Wilmington, Mass.), and housed in groups of four in standard cages. The animals were maintained on a 12 hour light/12 hour dark cycle and permitted ad lib access to food and water. Experiments were conducted during the animal's light phase. […] For PD128907, separate groups of Balb/c mice received subcutaneous injections of saline (n=4) or 0.05 or 0.4 mg/kg PD128907 (n=4, for each). Locomotion (‘distance traveled’) scores of drug-injected animals were collapsed across 10-min intervals and for comparison purposes were normalized to saline injected animals (FIG. 12A). The experiment was conducted on three separate occasions.
# [5] = test system: intrastriatal 6-OHDA lesioned rats; assay: Forelimb stepping test in intrastriatal 6-OHDA lesioned rats; conditions: levodopa 2, 4 and 6 mg/kg with benserazide
# D2L dopamine receptor [6] = molecular target: T2, D2L dopamine receptor (Homo sapiens (Human), UniProt P14416); conditions: Kuzhikandathil & Bartoszyk, 2006; cited from earlier work
# D2S dopamine receptor = D2S dopamine receptor (Homo sapiens (Human), UniProt P14416); assay: Tolerance and SRT at D2S dopamine receptors; format: cell-based
# D4.2 dopamine receptor [7] = molecular target: T3, D4.2 dopamine receptor (Homo sapiens (Human), UniProt P21917, DEL265-296); conditions: Kuzhikandathil & Bartoszyk, 2006; cited from earlier work
# D4.2 dopamine receptor [8] = molecular target: T3, D4.2 dopamine receptor; conditions: Kuzhikandathil & Bartoszyk, 2006; cited from earlier work; remark: listed apart in the source
# D2L dopamine receptor [9] = molecular target: T2, D2L dopamine receptor; conditions: Kuzhikandathil & Bartoszyk, 2006; cited from earlier work; remark: listed apart in the source
# T3 sequence (P21917 other isoform, or with tags, fused parts or gaps del 265-296): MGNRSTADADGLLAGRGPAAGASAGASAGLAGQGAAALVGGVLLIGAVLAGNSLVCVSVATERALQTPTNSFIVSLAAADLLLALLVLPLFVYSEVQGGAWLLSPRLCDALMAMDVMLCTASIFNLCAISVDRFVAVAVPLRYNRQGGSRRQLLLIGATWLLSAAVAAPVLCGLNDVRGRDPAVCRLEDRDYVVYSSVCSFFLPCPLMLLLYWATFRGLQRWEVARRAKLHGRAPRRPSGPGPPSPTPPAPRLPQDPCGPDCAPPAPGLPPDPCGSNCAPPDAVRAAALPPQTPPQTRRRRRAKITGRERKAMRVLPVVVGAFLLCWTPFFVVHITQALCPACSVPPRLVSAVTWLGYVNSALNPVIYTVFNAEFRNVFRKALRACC
# T2 sequence (P14416 whole entry): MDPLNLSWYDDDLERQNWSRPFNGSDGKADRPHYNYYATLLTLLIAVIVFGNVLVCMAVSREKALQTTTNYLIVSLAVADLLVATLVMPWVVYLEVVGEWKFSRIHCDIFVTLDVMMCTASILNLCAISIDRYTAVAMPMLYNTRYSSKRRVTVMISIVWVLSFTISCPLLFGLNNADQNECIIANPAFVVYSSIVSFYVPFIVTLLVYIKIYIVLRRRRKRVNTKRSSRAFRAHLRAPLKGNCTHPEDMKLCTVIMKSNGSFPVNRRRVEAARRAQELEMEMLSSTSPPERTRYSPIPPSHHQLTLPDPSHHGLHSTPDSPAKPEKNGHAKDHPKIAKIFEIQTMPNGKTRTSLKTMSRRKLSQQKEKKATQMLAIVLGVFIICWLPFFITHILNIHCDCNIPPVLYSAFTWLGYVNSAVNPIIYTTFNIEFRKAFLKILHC
# D2S dopamine receptor, sequence (P14416 other isoform, or with tags, fused parts or gaps): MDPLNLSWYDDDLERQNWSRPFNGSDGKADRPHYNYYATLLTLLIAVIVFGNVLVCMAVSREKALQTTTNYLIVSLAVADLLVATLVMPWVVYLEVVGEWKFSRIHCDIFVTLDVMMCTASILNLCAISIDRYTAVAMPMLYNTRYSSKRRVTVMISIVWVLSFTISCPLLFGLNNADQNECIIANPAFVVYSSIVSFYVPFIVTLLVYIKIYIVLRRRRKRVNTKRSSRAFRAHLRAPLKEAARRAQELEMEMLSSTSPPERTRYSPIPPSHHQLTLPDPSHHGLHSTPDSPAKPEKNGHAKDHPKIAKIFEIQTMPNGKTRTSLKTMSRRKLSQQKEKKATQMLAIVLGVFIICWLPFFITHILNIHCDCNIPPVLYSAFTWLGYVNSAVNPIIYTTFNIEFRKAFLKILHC
# D2S, sequence (P14416 other isoform, or with tags, fused parts or gaps): as above
smiles,measurement,setting,value
"C#CC1=CCC(N(CCC)CCC)CC1 (stereo not drawn) [FAUC73, (4-ethynylcyclohex-3-enyl) dipropylamine]",D3 receptor tolerance and SRT properties (agonist-induced GIRK response),D3 dopamine receptor [1],abolished the tolerance property; also recorded: abolished both tolerance and SRT properties; also recorded: do not show D3 receptor tolerance and SRT
same,D3 receptor tolerance and SRT properties (agonist-induced GIRK response),D3 dopamine receptor [1]; listed as FAUC 73,completely abolished the receptors' tolerance and SRT properties
same,specificity of agonist effect (eticlopride pretreatment / parental cells),D3 dopamine receptor [2],specific for D3 receptors
"CCCN1CCO[C@@H]2c3cc(O)ccc3OC[C@H]21.Cl [PD128907, (4aR,10bR)-3,4-a,4,10b-tetrahydro-4-propyl-2H,5H-[1]benzopyrano-[4,3-b]-1,4-oxazin-9-ol hydrochloride]",Ki,D4.2,114 nM
same,Ki,"D3 dopamine receptor [3]; D3, Scheideler et al., 1997, read-out: Ki",0.4 nM
same,Ki,"D3 dopamine receptor [3]; source not stated, read-out: D3 dopamine receptor binding affinity Ki",2.3 nM
same,"dyskinesia induced by the compound itself, before levodopa administration",[4],in of itself induced dyskinesia; also recorded: increased AIMs score even before the levodopa was administered
same,Ki,D2S,202 nM
same,duration of hypoactivity post-injection,"Balb/c mice; PBZI 10 mg/kg sc, PD128907 0.4 mg/kg sc",40 min
same,duration of hypoactivity post-injection,Balb/c mice; PD128907 0.05 mg/kg sc,20 min
same,time by which locomotor activity returns to control saline levels,"Balb/c mice; post-injection, PBZI 10 mg/kg sc, PD128907 0.4 mg/kg sc",≤ 120 min
same,dose at which biphasic locomotor effect was observed,Balb/c mice; sc,≥ 0.05 mg/kg
same,locomotor response,"Balb/c mice; sc, PBZI 10 mg/kg, PD128907 0.05-0.4 mg/kg, normalized to saline, hydrochloride",induces both hypoactivity and hyperactivity; also recorded: biphasic locomotor response; also recorded: biphasic effect; also recorded: an initial hypoactivity (horizontal arrows) that is followed by hyperactivity
same,D3 receptor tolerance and SRT properties (agonist-induced GIRK response),D3 dopamine receptor [1]; hydrochloride,elicited tolerance and SRT; also recorded: induced enhanced tolerance; also recorded: induces severe tolerance and SRT
same,D3 receptor tolerance and SRT properties (agonist-induced GIRK response),"D3 dopamine receptor [1]; listed as PD 128907, hydrochloride",tolerance is elicited
"N[C@@H](Cc1ccc(O)c(O)c1)C(=O)O [levodopa, L-3,4-dihydroxyphenylalanine]",forelimb bradykinesia (forelimb stepping test),[5],dose dependent improvement in forelimb bradykinesia
"Fc1ccc(-c2cncc(CNC[C@H]3CCc4ccccc4O3)c2)cc1 [sarizotan, 1-[(2R)-3,4-dihydro-2H-chromen-2-yl]-N-([5-(4-fluorophenyl)pyridin-3-yl]methyl)methanamine]",adenylyl cyclase pathway: agonist type,D2L dopamine receptor [6],full agonist
same,tolerance and SRT properties at D2S,D2S dopamine receptor,induces tolerance and slow response termination (SRT) properties
same,adenylyl cyclase pathway: agonist type,D4.2 dopamine receptor [7],full agonist
same,GIRK channel signaling pathway: agonist type,D4.2 dopamine receptor [8],partial agonist
same,GIRK channel signaling pathway: agonist type,D2L dopamine receptor [9],partial agonist
